Patent publication US6146615A, “Contrast agents for image enhancement in magnetic resonance imaging” (priority 1999, dated 2000)
Entries after “also recorded” stand apart in the source; their conditions may differ.

How the values were obtained:
mice = conditions: metal chloride salts in aqueous solution, mice i.p.; cited from earlier work
[1] = tested on: implanted prostatic tumors (Dunning R3327, MAT/Lu); assay: T1-weighted MRI of tumor-bearing rats: percentage enhancement of tumor; format: in vivo, rat (inbred Copenhagen, male)
Excerpt: (§1) A T1 -weighted MRI examination (SE 400/15; SISCO SIS 85, 2 T) of the iron complex of ligand XI, Fe-DESAC, in rats (inbred Copenhagen, male, ca. 250 g bw) with implanted prostatic tumors (Dunning R3327, MAT/Lu) in the thigh muscles has been performed.
Thus, differentiation of tumor from surrounding muscle was straightforward with both contrast agents.
(§2) A T1 -weighted MRI examination (SE 400/15; SISCO SIS 85, 2 T) of three of these new MR contrast agents, the Fe(III) complexes of ligands XI, XVII and XXII in rats (inbred Copenhagen, male, ca. 250 g bw) with implanted prostatic tumors (Dunning R3327, MAT/Lu) in the thigh muscles was performed.

Muscle = assay: T1-weighted MRI of tumor-bearing rats: percentage enhancement of muscle; format: in vivo, rat (inbred Copenhagen, male); conditions: 100 μmol agent/kg bw iv, muscle line below large tumor
Excerpt: as §1, §2

liver and kidney [2] = assay: MR imaging experiments on healthy rats: percent enhancement of liver and kidney; format: in vivo, rat (female Fischer 344); conditions: 0.10 mmol/kg, tail vein, FIG. 1
Description: Animal studies were performed with a 1.5-T superconducting MR unit (Signa. GE Medical Systems) using a send-and-receive head coil containing two anesthetized female Fischer 344 rats. After a localizer image were obtained, a spin-echo pulse sequence were used with a 256×256 matrix (three signals acquired) over a 20-cm field of view with a thickness of 3 mm and a 1.5-mm intersection gap. The pulse sequence parameters were TR =300 ms and TE =20 ms. Sagittal images were collected before administration of the contrast agent, and after administration, five more images were collected. Operator defined region-of-interest (ROI) measurements were made upon the organs under study for the pre- and postcontrast images. ROI measurements were recorded for the liver and kidney. For the liver, three slices were studied and for the kidneys, a single slice through each kidney was studied.
Percent enhancement was calculated by the following equation: [formula]
Female Fischer 334 rats were used in the imaging experiments. The subjects were weighed and anesthetized with 65 mg/kg pentobarbital. The preinjection pulse sequence was performed, then the contrast agent was administered. The concentration used was 0.10 mmollkg with an injection volume of 0.5 mL used throughout, administered over a time range of approximately three minutes. […]

liver and kidney [3] = conditions: over the same time period as FIG. 1; Davies et al. 1996, U.S. Pat. No. 5,494,656; cited from earlier work

[Gd] [gadolinium]
LD50 (mice): 1.4 mmol/kg

[Mn+2] [manganese]
LD50 (mice): 1.5 mmol/kg

iron
LD50 (mice): 1.6 mmol/kg

O=C([O-])CN(CCN(CC(=O)[O-])CC(=O)O)CCN(CC(=O)[O-])CC(=O)O.[Gd+3] [Gd-DTPA, gadolinium ion chelated with the ligand diethylenetriaminepentaacetic acid]
Percentage enhancement, large, necrotic tumor, 1 hr ([1]; 100 μmol agent/kg bw iv, 1 hr post contrast): +52 ± 14% | Percentage enhancement, large, necrotic tumor, 24 hr ([1]; 100 μmol agent/kg bw iv, 24 hr post contrast): -11 ± 8% | enhancement of necrotic tumor tissue ([1]; large (almost completely necrotic) tumor, 24 hr post contrast): no such enhancement was found with Gd-DTPA; also recorded: no significant enhancement of tumor | differentiation of tumor from surrounding muscle ([1]; single iv application): straightforward | tumor enhancement, 3 hr ([1]; single iv application, 3 hr post contrast): significant tumor enhancement | Percentage enhancement, muscle (large, necrotic tumor), 1 hr (Muscle; 1 hr post contrast): +10 ± 6% | Percentage enhancement, muscle (large, necrotic tumor), 24 hr (Muscle; 24 hr post contrast): -4 ± 2%

Fe(III) tris(tironate)
liver-specificity (liver and kidney [2]): does not show this tissue specificity | liver enhancement (liver and kidney [3]): ≤ 15%
